Assay results from BindingDB's records for doi:10.1021/acs.biochem.5b00221 (Dalhousie University, 2015).
pKi: −log10 of the molar value.

Target: T1, Mandelate racemase (Pseudomonas putida, UniProt P11444)
T1 sequence (P11444 whole entry): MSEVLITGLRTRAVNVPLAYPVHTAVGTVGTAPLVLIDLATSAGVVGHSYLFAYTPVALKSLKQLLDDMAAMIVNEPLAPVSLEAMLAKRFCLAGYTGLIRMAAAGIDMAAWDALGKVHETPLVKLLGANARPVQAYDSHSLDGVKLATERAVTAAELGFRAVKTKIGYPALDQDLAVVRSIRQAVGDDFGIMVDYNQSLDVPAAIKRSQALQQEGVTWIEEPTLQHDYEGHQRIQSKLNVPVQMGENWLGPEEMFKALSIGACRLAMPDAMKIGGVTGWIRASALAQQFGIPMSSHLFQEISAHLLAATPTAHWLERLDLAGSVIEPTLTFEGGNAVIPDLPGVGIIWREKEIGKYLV
Assay: Circular Dichroism (CD) Based Assays
Details: pH 7.5
Experimental: MR activity was assayed using a CD-based assay by following the change in ellipticity of mandelate at 262 nm using a thermostated quartz cuvette with a 1-cm light path (unless otherwise indicated) as described by Sharp et al. Allassays (total volume of 2 mL) were conducted at 25 °C in Na+ HEPES buffer (0.1 M, pH 7.5) containing MgCl2 (3.3 mM), BSA [0.005% (w/v)], and (R)-mandelate as the substrate. The concentration of MR was determined from its absorbance at 280 nm using an extinction coefficient of 53400 M^−1 cm^−1.

Row | SMILES | pKi
1 | O=C(O)C(=O)CF [3-fluoro-2-oxopropanoate] | 2.89
2 | O=C(O)C(=O)C(=O)O [Mesoxalate] | 2.74
